The source of these data is patent publication US6869957B1, “Non-peptide tachykinin receptor antagonists” (Eli Lilly and Company, priority 1993, dated 2005).

One assay deals with T1, NK-1 receptor (Homo sapiens, UniProt P25103).
T1 construct: endogenous in cells; host or cells: IM9 cells (human cell line), whole cells
In words: NK-1 Receptor Binding Assay (125I-labeled substance P, IM9 cells). The following applies: for IC50: inhibits fifty percent of binding of 125I-substance P to IM9 cells; for NK-1 percent inhibition of binding: @ 5 μM. The protocol: The biological activity of the compounds of the present invention was evaluated employing an initial screening assay which rapidly and accurately measured the binding of the tested compound to known NK-1 and NK-2 receptor sites. Assays useful for evaluating tachykinin receptor antagonists are well known in the art.
NK-1 Receptor Binding Assay
Radioreceptor binding assays were performed using a derivative of a previously published protocol.
The IM9 cell line is a well-characterized and readily available human cell line.
The reaction was terminated by filtration through a glass fiber filter harvesting system using filters previously soaked for 20 minutes in 0.1% polyethylenimine. Specific binding of labeled substance P was determined in the presence of 20 nM unlabeled ligand.

In a further assay the target is T2, human NK-2 receptor (Homo sapiens, UniProt P21452).
T2 construct: expressed in transfected cells; host or cells: CHO-hNK-2R cells (CHO-derived), membrane preparation
T2 sequence (P21452 1-398): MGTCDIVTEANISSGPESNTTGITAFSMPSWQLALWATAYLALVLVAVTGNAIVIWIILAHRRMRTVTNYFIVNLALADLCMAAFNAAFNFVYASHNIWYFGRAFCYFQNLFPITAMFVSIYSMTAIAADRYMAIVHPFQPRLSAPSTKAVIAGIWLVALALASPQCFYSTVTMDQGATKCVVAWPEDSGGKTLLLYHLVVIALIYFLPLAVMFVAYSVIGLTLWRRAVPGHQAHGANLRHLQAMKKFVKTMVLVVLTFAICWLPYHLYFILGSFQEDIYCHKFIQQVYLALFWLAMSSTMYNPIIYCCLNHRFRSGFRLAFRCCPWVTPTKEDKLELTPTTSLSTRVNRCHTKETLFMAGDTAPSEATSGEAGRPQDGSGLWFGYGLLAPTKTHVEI
As to the kind of experiment: NK-2 Receptor Binding Assay ([125I]iodohistidyl-neurokinin A, CHO-hNK-2R membranes). The following applies: for IC50: inhibits fifty percent of binding of [125I]iodohistidyl-neurokinin A to CHO-hNK-2R membranes. The protocol:
The biological activity of the compounds of the present invention was evaluated employing an initial screening assay which rapidly and accurately measured the binding of the tested compound to known NK-1 and NK-2 receptor sites. Assays useful for evaluating tachykinin receptor antagonists are well known in the art. See. e.g., J. Jukic, et al., Life Sciences, 49:1463-1469 (1991); N. Kucharczyk, et al., Journal of Medicinal Chemistry, 36:1654-1661 (1993); N. Rouissi, et al., Biochemical and Biophysical Research Communications, 176:894-901 (1991).
NK-2 Receptor Binding Assay
The CHO-hNK-2R cells, a CHO-derived cell line transformed with the human NK-2 receptor, expressing about 400,000 such receptors per cell, were grown in 75 cm^2 flasks or roller bottles in minimal essential medium (alpha modification) with 10% fetal bovine serum. The gene sequence of the human NK-2 receptor is given in N. P. Gerard, et al., Journal of Biological Chemistry, 265:20455-20462 (1990).
For preparation of membranes, 30 confluent roller bottle cultures were dissociated by washing each roller bottle with 10 ml of Dulbecco's phosphate buffered saline (PBS) without calcium and magnesium, followed by addition of 10 ml of enzyme-free cell dissociation solution (PBS-based, from Specialty Media, Inc.). After an additional 15 minutes, the dissociated cells were pooled and centrifuged at 1,000 RPM for 10 minutes in a clinical centrifuge. Membranes were prepared by homogenization of the cell pellets in 300 ml 50 mM Tris buffer, pH 7.4 with a Tekma® homogenizer for 10-15 seconds, followed by centrifugation at 12,000 RPM (20,000×g) for 30 minutes using a Beckman JA-14® rotor. The pellets were washed once using the above procedure. and the final pellets were resuspended in 100-120 ml 50 mM Tris buffer, pH 7.4, and 4 ml aliquots stored frozen at −70° C. The protein concentration of this preparation was 2 mg/ml.
For the receptor binding assay, one 4-ml aliquot of the CHO-hNK-2R membrane preparation was suspended in 40 ml of assay buffer containing 50 mM Tris, pH 7.4, 3 mM manganese chloride, 0.02% bovine serum albumin (BSA) and 4 μg/ml chymostatin. A 200 μl volume of the homogenate (40 μg protein) was used per sample. The radioactive ligand was [^125I]iodohistidyl-neurokinin A (New England Nuclear, NEX-252), 2200 Ci/mmol. The ligand was prepared in assay buffer at 20 nCi per 100 μl; the final concentration in the assay was 20 pM. Non-specific binding was determined using 1 μM eledoisin. Ten concentrations of eledoisin from 0.1 to 1000 nM were used for a standard concentration-response curve.
All samples and standards were added to the incubation in 10 μl dimethylsulfoxide (DMSO) for screening (single dose) or in 5 μl DMSO for IC50 determinations. The order of additions for incubation was 190 or 195 μl assay buffer, 200 μl homogenate, 10 or 5 μl sample in DMSO, 100 μl radioactive ligand. The samples were incubated 1 hr at room temperature and then filtered on a 48 well Brandel cell harvester through GF/B filters which had been presoaked for two hours in 50 mM Tris buffer, pH 7.7, containing 0.5% BSA. The filter was washed 3 times with approximately 3 ml of cold 50 mm Tris buffer, pH 7.7. The filter circles were then punched into 12×75 mm polystyrene tubes and counted in a gamma counter.

T1 sequence (P25103 whole entry): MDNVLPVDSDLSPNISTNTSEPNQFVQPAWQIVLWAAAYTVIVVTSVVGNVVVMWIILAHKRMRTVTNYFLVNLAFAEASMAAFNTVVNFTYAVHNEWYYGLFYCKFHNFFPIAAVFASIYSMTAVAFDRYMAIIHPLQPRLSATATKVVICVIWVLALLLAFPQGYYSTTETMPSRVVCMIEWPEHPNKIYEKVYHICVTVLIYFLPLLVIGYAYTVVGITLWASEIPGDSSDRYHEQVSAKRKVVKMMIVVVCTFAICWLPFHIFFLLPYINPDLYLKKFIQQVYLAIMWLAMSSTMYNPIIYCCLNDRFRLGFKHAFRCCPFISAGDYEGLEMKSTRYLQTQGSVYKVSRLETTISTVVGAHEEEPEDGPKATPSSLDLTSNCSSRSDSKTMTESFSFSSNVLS

One may read the IC50 as the concentration that inhibits the measured activity by half. A high value points to weaker potency. Consider `CSc1ccc(CN(CC(Cc2c[nH]c3ccccc23)NC(=O)CN2CCN(c3ccccc3)CC2)C(C)=O)cc1` (stereo not shown) [Example 23], for which the 50% inhibitory concentration (IC50) on NK-1 receptor is 13 nM; at human NK-2 receptor it was 810 nM.
On to `CN(CC(Cc1c[nH]c2ccccc12)NC(=O)CN1CCN(c2ccccc2)CC1)C(=O)c1ccccc1` (stereo not shown) [Example 157], for which the “NK-1 percent inhibition of binding” value at NK-1 receptor was 88% @. This compound also yielded a 50% inhibitory concentration (IC50) at human NK-2 receptor of 2900 nM.
In the same order, the values of `CCCCCCN(CC(Cc1c[nH]c2ccccc12)NC(c1ccccc1)(c1ccccc1)c1ccccc1)C(C)=O` (stereo not shown) [Example 166] are 0% @ 5 μM and 10000 nM.
As for `COc1ccccc1CNCC(NC(c1ccccc1)(c1ccccc1)c1ccccc1)c1ccccc1` (stereo not shown) [Example 173], the half-maximal inhibitory concentration (IC50) on NK-1 receptor was 74 nM; on human NK-2 receptor, 2000 nM.
`COc1ccccc1CN(CC(Cc1cn(C)c2ccccc12)NC(=O)CBr)C(C)=O` (stereo not shown) [Example 162] had an IC50 on NK-1 receptor of 375 nM. In addition, the “NK-2 percent inhibition of binding” value on human NK-2 receptor (@ 10 μM) came to 0% @.
For the compound `CC(=O)N(Cc1ccccc1)CC(Cc1c[nH]c2ccccc12)NC(=O)CN1CCN(c2ccccc2)CC1` (stereo not shown) [Example 12], the IC50 at NK-1 receptor was found to be 1.6 nM; on human NK-2 receptor, 1600 nM.
As for `CC(=O)N(CC(Cc1c[nH]c2ccccc12)NC(=O)CN1CCC(N2CCCCC2)CC1)C(C)c1ccccc1` (stereo not shown) [Example 104], the concentration for half-maximal inhibition (IC50) on NK-1 receptor was 0.62 nM; at human NK-2 receptor, 1600 nM.
As for `COc1ccccc1CN(CC(Cc1ccc2ccccc2c1)NC(=O)CN1CCN(c2ccccc2)CC1)C(C)=O` (stereo not shown) [Example 142], the values for the IC50 at NK-1 receptor and at human NK-2 receptor were 8.6 nM and 830 nM, respectively.
On to `COc1ccccc1CN(CC(Cc1c[nH]c2ccccc12)NC(=O)CNCCNc1ccccc1)C(C)=O` (stereo not shown) [Example 58], for which the results for the IC50 at NK-1 receptor and on human NK-2 receptor were 14 nM and 340 nM, respectively.
By inhibition is commonly meant the change of the read-out against control, counted positive when it falls. Compound `COc1ccccc1CN(CC(Cc1c[nH]c2ccccc12)NC(C)=O)C(C)=O` (stereo not shown) [Example 106] came in with a half-inhibitory concentration (IC50) on NK-1 receptor of 68 nM. Also, the inhibition at 10 µM on human NK-2 receptor (@ 10 μM, read-out: NK-2 percent inhibition of binding) amounted to 33%.
For the compound `COc1ccccc1CN(CC(Cc1c[nH]c2ccc(Br)cc12)NC(=O)CN1CCN(c2ccccc2)CC1)C(C)=O` (stereo not shown) [Example 116], the results for the IC50 at NK-1 receptor and on human NK-2 receptor were 58 nM and 930 nM, respectively.
As to `CC(=O)NC(Cc1c[nH]c2ccccc12)CN(Cc1ccccc1Cl)C(=O)CN1CCC(N2CCCCC2)CC1` (stereo not shown) [Example 109], the concentration for half-maximal inhibition (IC50) at NK-1 receptor was 190 nM; on human NK-2 receptor, 2000 nM.
Take `CCCCCCN(CC(Cc1c[nH]c2ccccc12)NC(=O)CN1CCN(c2ccccc2)CC1)C(C)=O` (stereo not shown) [Example 40]: the IC50 on NK-1 receptor came out at 21.3 nM; at human NK-2 receptor it was 910 nM.
For the compound `COc1ccccc1CN(CC(Cc1c[nH]c2cccc(C)c12)NC(=O)CN1CCC(N2CCCCC2)CC1)C(C)=O` (stereo not shown) [Example 125], the IC50 was found to be 0.66 nM on NK-1 receptor and 2100 nM at human NK-2 receptor.
With `COc1ccccc1CN(CC(Cc1c[nH]c2cc(C)ccc12)NC(=O)CN1CCN(c2ccccc2)CC1)C(C)=O` (stereo not shown) [Example 114], the IC50 was 29.2 nM at NK-1 receptor and 940 nM at human NK-2 receptor.
For `COc1ccccc1CN(CC(Cc1c[nH]c2ccccc12)NC(=O)CCCC(=O)c1ccccc1)C(C)=O` (stereo not shown) [Example 98], the IC50 was found to be 21 nM at NK-1 receptor and 600 nM on human NK-2 receptor.
`COc1ccccc1CN(CC(N)Cc1cn(C)c2ccccc12)C(C)=O` (stereo not shown) [Example 160]: the “NK-1 percent inhibition of binding” value on NK-1 receptor was found to be 0% @. This compound also showed an IC50 on human NK-2 receptor of 19000 nM.
For the compound `COc1ccccc1CN(CC(NC(=O)CBr)c1ccccc1)C(C)=O` (stereo not shown) [Example 161], the “NK-1 percent inhibition of binding” value at NK-1 receptor was 24% @. Further, on human NK-2 receptor (@ 10 μM), the “NK-2 percent inhibition of binding” value is reported as 0% @.
Regarding `COc1ccccc1CN(CC(NC(=O)CN1CCN(c2ccccc2)CC1)c1ccccc1)C(C)=O` (stereo not shown) [Example 138], the IC50 at NK-1 receptor was 770 nM; at human NK-2 receptor it was 2500 nM.
Take `O=C(CN1CCN(c2ccccc2)CC1)NC(CNCC1CCCCC1)Cc1c[nH]c2ccccc12` (stereo not shown) [Example 153]: the IC50 on NK-1 receptor worked out at 650 nM; at human NK-2 receptor, 540 nM.
In the same order, the values of `COc1ccccc1CN(CC(NC(=O)CN1CCN(c2ccccc2)CC1)c1ccc(Cl)c(Cl)c1)C(C)=O` (stereo not shown) [Example 139] are 396 nM and 580 nM.
For `COc1cccc(CN(CC(Cc2c[nH]c3ccccc23)NC(=O)CN2CCN(c3ccccc3)CC2)C(C)=O)c1` (stereo not shown) [Example 21], the IC50 on NK-1 receptor turned out to be 4.6 nM; at human NK-2 receptor it was 1200 nM.
Consider `COc1ccc(CN(CC(Cc2c[nH]c3ccccc23)NC(=O)CN2CCN(c3ccccc3)CC2)C(C)=O)cc1` (stereo not shown) [Example 22], for which the results for the IC50 on NK-1 receptor and at human NK-2 receptor were 2.1 nM and 3300 nM, respectively.
Consider `COC(=O)CN(Cc1ccccc1OC)CC(Cc1c[nH]c2ccccc12)NC(=O)CN1CCN(c2ccccc2)CC1` (stereo not shown) [Example 10], for which the half-inhibitory concentration (IC50) was found to be 19 nM on NK-1 receptor and 820 nM on human NK-2 receptor.
Taken in the same sequence, the figures for `COc1ccccc1CN(CC(Cc1c[nH]c2ccccc12)NC(=O)CNCc1ccccn1)C(C)=O` (stereo not shown) [Example 81] were 13 nM and 1100 nM.
With `COc1ccccc1CN(CC(NC(c1ccccc1)(c1ccccc1)c1ccccc1)c1ccccc1)C(C)=O` (stereo not shown) [Example 175], the “NK-1 percent inhibition of binding” value on NK-1 receptor worked out at 28% @. Also, the “NK-2 percent inhibition of binding” value at human NK-2 receptor (@ 10 μM) came out at 9% @.
Turning to `CC(=O)N(C)CC(Cc1c[nH]c2ccccc12)NC(=O)CN1CCN(c2ccccc2)CC1` (stereo not shown) [Example 38], the “NK-1 percent inhibition of binding” value on NK-1 receptor came to 30% @. The same compound yielded a half-inhibitory concentration (IC50) at human NK-2 receptor of 8000 nM.
On to `CC(C)(C)OC(=O)NCC(Cc1c[nH]c2ccccc12)NC(=O)CN1CCN(c2ccccc2)CC1` (stereo not shown) [Example 151, 1-t-butoxycarbonylamino-3-(1H-indol-3-yl)-2-[N-(2-((4-phenyl)piperazin-1-yl)acetyl)amino]propane], for which the IC50 turned out to be 1400 nM at NK-1 receptor and 1700 nM on human NK-2 receptor.
Taken in the same sequence, the figures for `CC(=O)N(Cc1ccccc1Cl)CC(Cc1c[nH]c2ccccc12)NC(=O)CN1CCC(N2CCCCC2)CC1` (racemic) [Example 47] were 0.25 nM and 1800 nM.
In the same order, the values of `COc1ccccc1CN(CC(Cc1c[nH]c2ccc(C)cc12)NC(=O)CN1CCC(N2CCCCC2)CC1)C(C)=O` (stereo not shown) [Example 126] are 2.8 nM and 3400 nM.
In the same order, the values of `CCOC(=O)N(Cc1ccccc1OC)CC(Cc1c[nH]c2ccccc12)NC(=O)CN1CCN(c2ccccc2)CC1` (stereo not shown) [Example 28, 1-[N-ethoxycarbonyl-N-(2-methoxybenzyl)amino]-3-(1H-indol-3-yl)-2-[N-(2-((4-phenyl)piperazin-1-yl)acetyl)amino]propane] are 1.7 nM and 1000 nM.
As to `COc1ccccc1CN(CC(Cc1c[nH]c2ccccc12)NC(=O)CCc1ccccc1)C(C)=O` (racemic) [Example 89], the half-maximal inhibitory concentration (IC50) on NK-1 receptor stood at 170 nM; at human NK-2 receptor it was 1200 nM.
